Laboratory results as given in article PMC10182041, “A first-in-class inhibitor of Hsp110 molecular chaperones of pathogenic fungi” (Nature Communications, 2023).

Tests used:
[1] = molecular target: Ssa1 (Saccharomyces cerevisiae, UniProt P10591); test: displacement of pre-bound ATP-FAM, fluorescence polarization; assay type: binding
[2] = molecular target: Msi3 (Candida albicans, UniProt Q96VB9, I164D); test: luciferase aggregation (holdase) assay at OD320 with purified mutant; assay type: biochemical
[3] = molecular target: Msi3 (Candida albicans, UniProt Q96VB9); test: IC50 from the luciferase holdase assay; assay type: biochemical
[4] = molecular target: T1, Sse1 (Saccharomyces cerevisiae, UniProt P32589); test: reduction of ATP-FAM binding to purified Sse1, fluorescence polarization; assay type: biochemical
T1 sequence (P32589 1-693): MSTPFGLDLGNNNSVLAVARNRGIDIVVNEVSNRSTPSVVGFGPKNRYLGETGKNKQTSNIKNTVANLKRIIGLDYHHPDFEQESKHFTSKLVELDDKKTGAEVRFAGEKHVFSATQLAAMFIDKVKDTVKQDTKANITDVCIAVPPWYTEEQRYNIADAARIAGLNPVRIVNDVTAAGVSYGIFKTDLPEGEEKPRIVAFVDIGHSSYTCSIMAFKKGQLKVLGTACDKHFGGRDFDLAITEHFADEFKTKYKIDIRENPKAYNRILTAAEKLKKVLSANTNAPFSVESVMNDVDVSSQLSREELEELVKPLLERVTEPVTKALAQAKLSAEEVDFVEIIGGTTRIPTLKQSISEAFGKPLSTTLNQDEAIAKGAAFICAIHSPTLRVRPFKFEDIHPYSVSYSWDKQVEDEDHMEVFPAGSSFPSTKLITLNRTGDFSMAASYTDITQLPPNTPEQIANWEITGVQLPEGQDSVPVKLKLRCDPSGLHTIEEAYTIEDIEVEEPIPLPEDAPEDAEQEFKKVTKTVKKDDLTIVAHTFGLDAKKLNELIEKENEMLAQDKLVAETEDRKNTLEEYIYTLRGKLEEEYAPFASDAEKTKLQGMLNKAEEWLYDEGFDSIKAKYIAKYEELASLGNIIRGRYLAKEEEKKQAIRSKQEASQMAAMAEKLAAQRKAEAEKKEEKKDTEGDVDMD

Chain of Ssa1 (P10591 2-642): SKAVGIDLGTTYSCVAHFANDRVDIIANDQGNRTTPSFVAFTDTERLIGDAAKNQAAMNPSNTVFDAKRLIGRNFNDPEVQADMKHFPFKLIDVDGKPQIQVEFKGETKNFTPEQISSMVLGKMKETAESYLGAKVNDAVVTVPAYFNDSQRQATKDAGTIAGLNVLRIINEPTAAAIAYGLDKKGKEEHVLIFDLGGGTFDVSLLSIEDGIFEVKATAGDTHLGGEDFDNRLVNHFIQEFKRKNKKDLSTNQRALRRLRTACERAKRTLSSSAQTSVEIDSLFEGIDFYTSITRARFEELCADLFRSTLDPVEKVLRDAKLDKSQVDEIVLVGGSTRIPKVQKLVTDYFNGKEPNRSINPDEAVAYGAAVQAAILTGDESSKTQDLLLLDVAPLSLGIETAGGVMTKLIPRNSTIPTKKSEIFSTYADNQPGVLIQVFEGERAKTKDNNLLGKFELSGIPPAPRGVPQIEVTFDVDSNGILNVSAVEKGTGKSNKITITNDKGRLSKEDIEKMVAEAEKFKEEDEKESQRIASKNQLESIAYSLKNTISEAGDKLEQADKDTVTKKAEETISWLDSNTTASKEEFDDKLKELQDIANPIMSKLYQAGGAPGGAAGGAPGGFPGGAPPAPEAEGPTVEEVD
Chain of Msi3 (Candida albicans, UniProt Q96VB9, I164D) (Q96VB9 whole entry I164D): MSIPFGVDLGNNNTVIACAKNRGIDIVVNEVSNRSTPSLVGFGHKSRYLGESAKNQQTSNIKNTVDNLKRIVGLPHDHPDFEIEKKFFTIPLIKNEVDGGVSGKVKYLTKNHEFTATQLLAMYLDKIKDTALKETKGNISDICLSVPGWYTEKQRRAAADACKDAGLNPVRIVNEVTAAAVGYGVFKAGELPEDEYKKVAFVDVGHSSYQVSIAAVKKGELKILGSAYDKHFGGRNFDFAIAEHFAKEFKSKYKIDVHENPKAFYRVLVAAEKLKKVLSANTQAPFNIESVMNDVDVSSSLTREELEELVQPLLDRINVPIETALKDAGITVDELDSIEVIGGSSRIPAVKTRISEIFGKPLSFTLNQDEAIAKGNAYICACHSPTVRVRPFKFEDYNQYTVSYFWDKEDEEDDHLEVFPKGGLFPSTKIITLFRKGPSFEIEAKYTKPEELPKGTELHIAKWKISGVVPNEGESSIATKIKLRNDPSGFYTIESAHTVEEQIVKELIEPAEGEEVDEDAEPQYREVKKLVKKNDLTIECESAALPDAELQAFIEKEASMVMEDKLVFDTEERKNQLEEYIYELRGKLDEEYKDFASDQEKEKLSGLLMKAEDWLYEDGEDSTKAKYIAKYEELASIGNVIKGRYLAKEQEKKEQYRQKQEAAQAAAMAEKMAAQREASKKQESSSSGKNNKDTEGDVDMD
Chain of Msi3 (Candida albicans, UniProt Q96VB9) (Q96VB9 whole entry): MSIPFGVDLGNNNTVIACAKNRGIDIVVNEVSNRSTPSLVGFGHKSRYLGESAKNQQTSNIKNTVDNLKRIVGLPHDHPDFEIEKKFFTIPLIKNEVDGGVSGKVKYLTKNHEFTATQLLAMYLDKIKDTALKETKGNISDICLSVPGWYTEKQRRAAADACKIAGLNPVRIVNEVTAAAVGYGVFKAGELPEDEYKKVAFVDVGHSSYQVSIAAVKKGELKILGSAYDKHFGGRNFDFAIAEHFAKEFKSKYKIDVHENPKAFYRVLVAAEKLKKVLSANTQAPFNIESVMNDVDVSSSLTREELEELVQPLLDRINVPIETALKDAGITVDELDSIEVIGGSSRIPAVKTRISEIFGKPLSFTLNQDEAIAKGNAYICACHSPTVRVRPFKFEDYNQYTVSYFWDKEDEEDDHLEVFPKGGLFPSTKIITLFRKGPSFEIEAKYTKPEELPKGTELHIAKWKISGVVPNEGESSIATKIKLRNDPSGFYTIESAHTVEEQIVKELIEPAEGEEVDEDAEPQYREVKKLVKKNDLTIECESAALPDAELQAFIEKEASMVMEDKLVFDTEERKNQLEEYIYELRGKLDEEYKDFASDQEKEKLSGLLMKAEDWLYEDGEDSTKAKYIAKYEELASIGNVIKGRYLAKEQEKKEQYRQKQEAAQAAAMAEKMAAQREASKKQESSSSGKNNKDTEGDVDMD

Nc1ncnc2c1ncn2[C@@H]1O[C@H](COP(=O)(O)OP(=O)(O)OP(=O)(O)O)[C@@H](O)[C@H]1O [ATP]
displacement of pre-bound ATP-FAM, fluorescence polarization [1]: suggesting that the pre-bound ATP-FAM was slowly replaced by the regular ATP

Cc1cccc(COc2nc3c(cc2-c2nc(N)cc(N)n2)c(C)nn3-c2ccccc2)c1 [2H, HLQ2H]
luciferase aggregation (holdase) assay at OD320 with purified mutant [2]: A similar inhibition of holdase activity was observed for this mutant when treated with 2H (Fig. S6a)
IC50 [3]: 5.02 ± 0.35 µM
reduction of ATP-FAM binding to purified Sse1, fluorescence polarization [4]: 2H showed a similar inhibition on Sse1 (Fig. S1a), the major Hsp110 from S. cerevisiae
